Measurements published in ChEMBL document CHEMBL3600292, “Anti-HIV screening for cell-penetrating peptides using chloroquine and identification of anti-HIV peptides derived from matrix proteins” (Bioorg Med Chem, 2015).
Starred links: 1 amine or outer side, 2 acyl side, 3 side chain; linkers in the order of their positions; H or OH if unused. Positions of bridges follow the written chain, without caps; N, C: chain ends. Non-standard residues stand in square brackets, D forms with d. Residues, ends and D or L forms follow the SMILES beside them. Chains are numbered I, II in the order given. *: point of attachment. Orn = NCCC[C@H](N)C(=O)O; X1 = O=C(C[*:1])[*:2]; Cam = NC(=O)C*

Legend:
[1] = Cytotoxicity against human PM1 cells expressing CCR5 by MTT assay in presence of 5 uM of chloroquine; assay type: cell-based
[2] = test system: Human immunodeficiency virus 1; assay: Antiviral activity against T-cell line-tropic HIV1 NL4-3 infected in human MT4 cells assessed as inhibition of virus-induced cytopathogenicity after 5 days by MTT assay; assay type: functional, organism-based; details: Human immunodeficiency virus 1, NL4-3, MT4, 120 h
[3] = test system: Human immunodeficiency virus 1; assay: Antiviral activity against T-cell line-tropic HIV1 NL4-3 infected in human MT4 cells assessed as inhibition of virus-induced cytopathogenicity after 5 days by MTT assay in presence of 2.5 uM of chloroquine; assay type: functional, organism-based; details: Human immunodeficiency virus 1, NL4-3, MT4, 120 h
[4] = Cytotoxicity against human MT4 cells by MTT assay in presence of 5 uM of chloroquine; assay type: cell-based
[5] = Cytotoxicity against human MT4 cells by MTT assay in presence of 10 uM of chloroquine; assay type: cell-based
[6] = Cytotoxicity against human MT4 cells by MTT assay; assay type: cell-based
[7] = test system: Human immunodeficiency virus 1; assay: Antiviral activity against T-cell line-tropic HIV1 NL4-3 infected in human MT4 cells assessed as inhibition of virus-induced cytopathogenicity after 5 days by MTT assay in presence of 5 uM of chloroquine; assay type: functional, organism-based; details: Human immunodeficiency virus 1, NL4-3, MT4, 120 h
[8] = test system: Human immunodeficiency virus 1; assay: Antiviral activity against macrophage-tropic HIV1 NL(AD8) infected in human PM1 expressing CCR5 cells assessed as inhibition of virus-induced cytopathogenicity after 5 days by MTT assay in presence of 5 uM of chloroquine; assay type: functional, organism-based; details: Human immunodeficiency virus 1, NL(AD8), PM1/CCR5, 120 h
[9] = Cytotoxicity against human MT4 cells by MTT assay in presence of 2.5 uM of chloroquine; assay type: cell-based
[10] = test system: Human immunodeficiency virus 1; assay: Antiviral activity against T-cell line-tropic HIV1 NL4-3 infected in human MT4 cells assessed as inhibition of virus-induced cytopathogenicity after 5 days by MTT assay in presence of 10 uM of chloroquine; assay type: functional, organism-based; details: Human immunodeficiency virus 1, NL4-3, MT4, 120 h

SMILES	CC50 [1]	EC50 [2]	EC50 [3]	CC50 [4]	CC50 [5]	CC50 [6]	EC50 [7]	EC50 [8]	CC50 [9]	EC50 [10]
c1cc(CN2CCCNCCNCCCNCC2)ccc1CN1CCCNCCNCCCNCC1 [PLERIXAFOR]	> 50 µM	0.032 µM	0.039 µM	> 50 µM	> 50 µM	> 50 µM	0.025 µM	> 50 µM	> 50 µM	–
CC[C@H](C)[C@H](NC(=O)[C@H](CCCNC(=N)N)NC(=O)[C@H](CCC(N)=O)NC(=O)[C@H](Cc1cnc[nH]1)NC(=O)[C@@H](NC(=O)[C@H](CO)NC(=O)[C@H](Cc1ccc(O)cc1)NC(=O)[C@H](CC(C)C)NC(=O)[C@@H](NC(=O)[C@H](C)NC(=O)[C@@H](NC(=O)[C@@H](NC(C)=O)[C@@H](C)O)[C@@H](C)CC)C(C)C)C(C)C)C(=O)N[C@@H](CC(=O)O)C(=O)N[C@H](C(=O)N[C@@H](CCCCN)C(=O)NCC(=O)N[C@@H](CSCC(N)=O)C(N)=O)C(C)C (Ac-TIAVLYSVHQRIDVKGC(Cam)-NH2)	> 50 µM	> 50 µM	> 50 µM	47 µM	> 50 µM	> 50 µM	22 µM	> 50 µM	> 50 µM	0.65 µM
Cc1cn([C@H]2C[C@H](N=[N+]=[N-])[C@@H](CO)O2)c(=O)[nH]c1=O [ZIDOVUDINE]	> 100 µM	0.12 µM	0.015 µM	> 100 µM	31 µM	> 100 µM	0.013 µM	0.51 µM	27 µM	–
CC[C@H](C)[C@H](NC(=O)[C@H](CCCNC(=N)N)NC(=O)[C@H](CCC(N)=O)NC(=O)[C@H](Cc1c[nH]cn1)NC(=O)[C@@H](NC(=O)[C@H](CO)NC(=O)[C@H](Cc1ccc(O)cc1)NC(=O)[C@H](CC(C)C)NC(=O)[C@@H](NC(=O)[C@H](C)NC(=O)[C@@H](NC(=O)[C@@H](NC(C)=O)[C@@H](C)O)[C@@H](C)CC)C(C)C)C(C)C)C(=O)N[C@@H](CC(=O)O)C(=O)N[C@H](C(=O)N[C@@H](CCCCN)C(=O)NCC(=O)N[C@@H](CSCC(=O)N[C@@H](CCCNC(=N)N)C(=O)N[C@@H](CCCN)C(=O)N[C@@H](CCCNC(=N)N)C(=O)N[C@@H](CCCN)C(=O)N[C@@H](CCCNC(=N)N)C(=O)N[C@@H](CCCN)C(=O)N[C@@H](CCCNC(=N)N)C(=O)N[C@@H](CCCN)C(N)=O)C(N)=O)C(C)C (I: Ac-TIAVLYSVHQRIDVKGC-NH2 / II: R[Orn]R[Orn]R[Orn]R[Orn]-NH2; linker I:17-II:N via X1)	7.2 µM	6.3 µM	1.6 µM	11 µM	9.1 µM	10 µM	0.62 µM	1.1 µM	6.1 µM	0.2 µM
CC[C@H](C)[C@H](NC(=O)[C@@H](NC(=O)[C@H](CC(N)=O)NC(=O)[C@H](Cc1ccc(O)cc1)NC(=O)[C@H](CC(C)C)NC(=O)[C@H](CO)NC(=O)[C@H](CCCNC(=N)N)NC(=O)[C@H](CC(C)C)NC(C)=O)[C@@H](C)O)C(=O)N[C@@H](C)C(=O)N[C@H](C(=O)N[C@@H](CC(C)C)C(=O)N[C@@H](Cc1ccc(O)cc1)C(=O)N[C@@H](CO)C(=O)N[C@H](C(=O)N[C@@H](Cc1c[nH]cn1)C(=O)NCC(=O)N[C@@H](CSCC(=O)N[C@@H](CCCNC(=N)N)C(=O)N[C@@H](CCCN)C(=O)N[C@@H](CCCNC(=N)N)C(=O)N[C@@H](CCCN)C(=O)N[C@@H](CCCNC(=N)N)C(=O)N[C@@H](CCCN)C(=O)N[C@@H](CCCNC(=N)N)C(=O)N[C@@H](CCCN)C(N)=O)C(N)=O)C(C)C)C(C)C	5.2 µM	> 8.5 µM	–	10 µM	–	8.5 µM	4.6 µM	> 5.2 µM	–	–
